The values below are quoted from earlier work in PubChem BioAssay AID1259410 (Chemical Carcinogenesis Research Information System (CCRIS), 2018).

SMILES strings stand for the structures.

The data set has as its system rodent tumor promotion studies, tumor incidence. As to the kind of experiment: CCRIS tumor promotion studies.

For `CCC(=O)O[C@H]1CC[C@H]2[C@@H]3CCC4=CC(=O)CC[C@]4(C)[C@H]3CC[C@]12C`, the outcome is recorded as “prostate: carcinoma; seminal vesicle: carcinoma” (Carcinogen: 3,2'-DIMETHYL-4-AMINOBIPHENYL, 13394-86-0, Doses [Carcinogen]: 50 MG/KG 1/2 WK FOR 20 WK, Doses [Promoter]: CONTINUOUS ADMINISTRATION TO CASTRATED RATS FOR 40 WK, IMPLANTS REPLACED AT 6-WK INTERVALS (STUDY DURATION: 60 WK), Route [Carcinogen]: SUBCUTANEOUS, Route [Promoter]: SUBCUTANEOUS IMPLANT, Species: RAT, Strain/Sex: F344/MALE); “dorsolateral prostate: carcinoma; seminal vesicle: carcinoma” (Carcinogen: 3,2'-DIMETHYL-4-AMINOBIPHENYL, 13394-86-0, Doses [Carcinogen]: 50 MG/KG 1/2 WK FOR A TOTAL OF 10 INJECTIONS, Doses [Promoter]: 0, 40 MG IN SILASTIC TUBES IMPLANTED 1 WK PRIOR TO CARCINOGEN TREATMENT AND CONTINUING FOR DURATION OF STUDY WITH REPLAC, Route [Carcinogen]: SUBCUTANEOUS, Route [Promoter]: SUBCUTANEOUS IMPLANT, Species: RAT, Strain/Sex: F344/MALE); “skin/subcutis: tumor” (Carcinogen: 3,2'-DIMETHYL-4-AMINOBIPHENYL, 13394-86-0, Doses [Carcinogen]: 50 MG/KG 1/2 WK FOR A TOTAL OF 10 INJECTIONS, Doses [Promoter]: 0, 100 MG/KG 1/D FOR 3 D PRECEDING EACH CARCINOGEN DOSE (STUDY DURATION: 56 WK), Route [Carcinogen]: SUBCUTANEOUS, Route [Promoter]: SUBCUTANEOUS, Species: RAT, Strain/Sex: F344/MALE); “dorsolateral prostate: carcinoma; seminal vesicles: carcinoma” (Carcinogen: 3,2'-DIMETHYL-4-AMINOBIPHENYL, 13394-86-0, Doses [Carcinogen]: 50 MG/KG 1/2 WK FOR A TOTAL OF 10 INJECTIONS, Doses [Promoter]: 0, 100 MG/KG 1/D FOR 3 D PRECEDING EACH CARCINOGEN DOSE THEN 0, 40 MG IN SILASTIC TUBES IMPLANTED POST LAST CARCINOGEN D, Doses [Promoter]: 0, 100 MG/KG 1/D FOR 3 D PRECEDING EACH CARCINOGEN DOSE THEN 0, 40 MG IN SILASTIC TUBES IMPLANTED POST LAST CARCINOGEN D, Route [Carcinogen]: SUBCUTANEOUS, Route [Promoter]: SUBCUTANEOUS, Species: RAT, Strain/Sex: F344/MALE); “prostate (anterior): carcinoma; seminal vesicles: carcinoma” (Carcinogen: 3,2'-DIMETHYL-4-AMINOBIPHENYL, 13394-86-0, Doses [Carcinogen]: 50 MG/KG BW 1/2 WK FOR 10 DOSES, Doses [Promoter]: 20, 40 MG/SILASTIC TUBE IMPLANT REPLACED AT 6 WK INTERVALS (STUDY DURATION: 60 WK), Route [Carcinogen]: SUBCUTANEOUS, Route [Promoter]: SUBCUTANEOUS, Species: RAT, Strain/Sex: F344/MALE); “seminal vesicles: carcinoma” (Carcinogen: 3,2'-DIMETHYL-4-AMINOBIPHENYL, 58109-32-3, Doses [Carcinogen]: 50 MG/KG BW 1/2 WK FOR 20 WK, Doses [Promoter]: 0, 40 MG BEGINNING POST CARCINOGEN TREATMENT AND RENEWED AT 6 WK INTERVALS FOR 40 WK (STUDY DURATION: 60 WK), Route [Carcinogen]: SUBCUTANEOUS, Route [Promoter]: SUBCUTANEOUS IMPLANT, Species: RAT, Strain/Sex: F344/MALE). For the same compound, the outcome is given as “mammary gland: tumor” (Carcinogen: 17 BETA-ESTRADIOL [50-28-2], Doses [Carcinogen]: 22 MG AT 3 MO OF AGE ONCE/3 MO FOR 1 YR, Doses [Promoter]: 0, 60 MG AT 3 MO OF AGE ONCE/3 MO FOR 1 YR (STUDY DURATION: 1 YR), Route [Carcinogen]: SUBCUTANEOUS IMPLANT, Route [Promoter]: SUBCUTANEOUS IMPLANT, Species: RAT, Strain/Sex: NOBLE/FEMALE (?,18)/(?/15)); “mammary gland: tumor” (Carcinogen: 17 BETA-ESTRADIOL, 50-28-2, Doses [Carcinogen]: 22 MG AT 3 MO OF AGE ONCE EVERY 3 MO FOR 1 YR, Doses [Promoter]: 0, 120 MG AT 3 MO OF AGE, 1/3 MO FOR 1 YR (STUDY DURATION: 1 YR), Route [Carcinogen]: SUBCUTANEOUS IMPLANT, Route [Promoter]: SUBCUTANEOUS IMPLANT, Species: RAT, Strain/Sex: NOBLE/FEMALE); “urinary bladder: tumor” (Carcinogen: N-BUTYL-N-(4-HYDROXYBUTYL)NITROSAMINE [3817-11-6], Doses [Carcinogen]: 0.05% IN DRINKING WATER FOR 18 WK (STUDY DURATION: 18 WK), Doses [Promoter]: 0, 3 MG/KG BW FOR 18 WK (STUDY DURATION: 18 WK), Route [Carcinogen]: ORAL, Route [Promoter]: INTRAMUSCULAR, Species: MOUSE, Strain/Sex: C57B6/6/MALE); “prostate/seminal vesicles: tumor” (Carcinogen: N-METHYL-N-NITROSOUREA, 684-93-5, Doses [Carcinogen]: 30 MG/KG BW ONCE, Doses [Promoter]: 0, 25 MG IMPLANT CHANGED AT 2 MO INTERVALS FOR A TOTAL OF 3 TIMES (STUDY DURATION: 14 MO), Route [Carcinogen]: INTRAVENOUS, Route [Promoter]: SUBCUTANEOUS IMPLANT, Species: RAT, Strain/Sex: LOBUND-WISTAR/MALE); “prostate: adenocarcinoma” (Carcinogen: N-METHYL-N-NITROSOUREA, 684-93-5, Doses [Carcinogen]: 30 MG/KG ONCE, Doses [Promoter]: 0, 50 MG IN SILASTIC MEMBRANE IMPLANT BEGINNING 1 MO POST CARCINOGEN DOSE AND REPEATED AT INTERVALS OF 2 MO FOR A TOTAL, Route [Carcinogen]: INTRAVENOUS, Route [Promoter]: SUBCUTANEOUS IMPLANT, Species: RAT, Strain/Sex: LOBUND-WISTAR/MALE); “prostate: adenocarcinoma” (Carcinogen: N-METHYL-N-NITROSOUREA, 684-93-5, Doses [Carcinogen]: 30 MG/KG ONCE, Doses [Promoter]: 0, 50 MG IN SILASTIC MEMBRANE IMPLANT BEGINNING 1 WK POST CARCINOGEN DOSE AND REPEATED AT INTERVALS OF 2 MO FOR A TOTAL, Route [Carcinogen]: INTRAVENOUS, Route [Promoter]: SUBCUTANEOUS IMPLANT, Species: RAT, Strain/Sex: LOBUND-WISTAR/MALE). The outcome (Carcinogen: N-METHYL-N-NITROSOUREA, 684-93-5, Doses [Carcinogen]: 30 MG/KG ONCE, Doses [Promoter]: 0, 50 MG IN SILASTIC MEMBRANE IMPLANT BEGINNING 1 WK POST CARCINOGEN DOSE FOLLOWED BY SECOND IMPLANT 2 MO LATER (STUDY D, Route [Carcinogen]: INTRAVENOUS, Route [Promoter]: SUBCUTANEOUS IMPLANT, Species: RAT, Strain/Sex: LOBUND-WISTAR/MALE) is “prostate: adenocarcinoma”; the outcome (Carcinogen: N-METHYL-N-NITROSOUREA, 684-93-5, Doses [Carcinogen]: 30 MG/KG ONCE, Doses [Promoter]: 0, 50 MG IN SILASTIC MEMBRANE IMPLANT BEGINNING 2 MO POST CARCINOGEN DOSE AND REPEATED AT INTERVALS OF 2 MO FOR A TOTAL, Route [Carcinogen]: INTRAVENOUS, Route [Promoter]: SUBCUTANEOUS IMPLANT, Species: RAT, Strain/Sex: LOBUND-WISTAR/MALE) is recorded as “prostate: adenocarcinoma”; the outcome (Carcinogen: N-METHYLNITROSOUREA, 684-93-5, Doses [Carcinogen]: 15 MG/KG/BW 1/4 WK FOR 5 INJECTIONS EACH FOLLOWING 2 WK PRETREATMENT WITH DIETARY ETHINYL ESTRADIOL, Doses [Promoter]: 0, 40 MG IMPLANTS REPLACED AT 6 WK INTERVALS FOR 40 WK IN RATS MAINTAINED ON DIETS WITH OR WITHOUT HIGH FAT CONTENT (20%, Route [Carcinogen]: INTRAVENOUS, Route [Promoter]: SUBCUTANEOUS IMPLANT, Species: RAT, Strain/Sex: F344/MALE) is “seminal vesicles: carcinoma; congulating glands: carcinoma”; the outcome (Carcinogen: N-NITROSOBIS(2-OXOPROPYL)AMINE, 60599-38-4, Doses [Carcinogen]: 20 MG/KG 1/4 WK FOR 5 INJECTIONS EACH FOLLOWING 2 WK PRETREATMENT WITH DIETARY ETHINYL ESTRADIOL, Doses [Promoter]: 0, 40 MG IMPLANTS REPLACED AT 6 WK INTERVALS FOR 40 WK IN RATS MAINTAINED ON DIETS WITH OR WITHOUT HIGH FAT CONTENT (20%, Route [Carcinogen]: SUBCUTANEOUS, Route [Promoter]: SUBCUTANEOUS IMPLANT, Species: RAT, Strain/Sex: F344/MALE) was “seminal vesicles: carcinoma”.

Take `C=C1C[C@@H]2[C@H](CC[C@]3(C)C(=O)CC[C@@H]23)[C@@]2(C)C=CC(=O)C=C12`: the outcome (Carcinogen: N-Methyl-N-nitrosourea, 684-93-5, Doses [Carcinogen]: 50 mg/kg bw, intraperitoneal, twice on days 43 and 49 of age, Doses [Promoter]: 0, 0.0001, 0.001% in diet from 7 d before carcinogen administration for 12 wks (Study duration 12 wks), Route [Carcinogen]: intraperitoneal, Route [Promoter]: Oral, Species: Rat, Strain/Sex: Sprague-Dawley/Female (19-20/Group)) is “mammary gland: various (statistically significant increase in tumor frequency, b”.

As for `CC1=C(/C=C/C(C)=C/C=C/C(C)=C/C(=O)O)C(C)(C)CCC1`, the outcome (Carcinogen: 7,12-DIMETHYLBENZ[A]ANTHRACENE, 57-97-6, Doses [Carcinogen]: 50 NMOL IN 200 µL ACETONE 2/WK FOR 16 WK, Doses [Promoter]: 0, 0.5, 25 NMOL IN 200 µL ACETONE APPLIED 1 HR PRIOR TO CARCINOGEN DOSES 2/WK FOR 16 WK (STUDY DURATION: 16 WK), Doses [Promoter]: 0, 0.5, 25 NMOL IN 200 µL ACETONE APPLIED 1 HR PRIOR TO CARCINOGEN DOSES 2/WK FOR 16 WK (STUDY DURATION: 16 WK), Route [Carcinogen]: DERMAL, Route [Promoter]: DERMAL, Species: MOUSE, Strain/Sex: CD-1/FEMALE) is given as “skin: tumors”.

As to `CC(C)(c1cc(Br)c(O)c(Br)c1)c1cc(Br)c(O)c(Br)c1`, the outcome (Carcinogen: N-bis(2-hydroxypropyl)nitrosamine, 53609-64-6, Doses [Carcinogen]: 0.08 and 0.2% in drinking water for 4 wks at 7-10 wks of age, study duration to 39 wk of age, Doses [Promoter]: In utero (0.01, 0.1, or 1% in diet of dams) and then in drinking water of weaned offspring for 2 wk, Route [Carcinogen]: Oral, Route [Promoter]: In utero and in drinking water, Species: Rat, Strain/Sex: F344/Male (12-15/group)) is listed as “none found”.

On to `CCCCCCCCCC(=O)OC`, for which the outcome (Carcinogen: 7,12-DIMETHYLBENZ(A)ANTHRACENE, Doses [Carcinogen]: TOP, Route [Carcinogen]: DERMAL, Route [Promoter]: DERMAL, Species: MOUSE, Strain/Sex: FEMALE) is on record as “integumentary system (skin)”.
